Test results: patent US20250082765A1, “MOLECULES AS ANTICANCER AGENTS FOR TARGETED TREATMENT OF BREAST AND PROSTATE CANCER” (priority 2021, published 2025)

Tests used:
[1] = Biodistribution analysis of capecitabine in other organs (blood, liver, lungs, spleen) of mice; details: later hours (1 hour, 2 hours)
Description: (§1) The route of administration incorporated for ester of citric acid with capecitabine and estrogen and ester of citric acid with capecitabine and dihydrotestosterone is through intravenous (IV) bolus.
(§2) The biodistribution analysis was carried out for capecitabine in plasma. […] The biodistribution analysis was carried out in breast tissue for females and in prostate gland for males along with several other organs including blood, liver, lungs and spleen.
(§3) The biodistribution analysis was carried out in three groups of albino mice. The female albino mice of age 7-8 weeks and weight 19g-35g were analyzed for the distribution of capecitabine in breast tissue. The male albino mice of age 7-8 weeks and weight 20g-30g were analyzed for the distribution of capecitabine in prostate gland. The study groups comprised of 3 groups including group 1, group 2 and group 3. The study group 1 comprised 6 mice receiving normal control, study group 2 comprised 6 mice receiving pure drug solution and study group 3 comprised 6 mice receiving molecule of formula (I) anticancer drug.
(§4) The analysis of capecitabine in plasma was initiated by liquid-liquid extraction using ethyl acetate. The extraction was carried out on ethylene bridged hybrid (BEH) C18 (100×2.1 mm, 1.7 μm) column. An isocratic flow rate of 0.5 ml/min of acetonitrile (0.1%) and 0.002M ammonium acetate as mobile phase was incorporated. Mass spectrometry analysis was carried out in multiple reaction monitoring modes. The precursor to product ion transitions with mass to ion (m/z) ratio of 360.04 to 244.08 was found for capecitabine. […] The biodistribution data for capecitabine was obtained for concentrations ranging from 5 ng/ml and 40 ng/ml.
(§5) The biodistribution of capecitabine was also analyzed for several other organs such as blood, liver, lungs and the spleen. […] The biodistribution of capecitabine was analyzed at time intervals of 0.5 hours, 1 hour and 2 hours. The biodistribution data was recorded for 6 mice.

in vivo = details: albino, mouse, intravenous
Description: as §1, §2, §3, §4, §5

CCCCCOC(=O)Nc1nc(=O)n([C@@H]2O[C@H](C)[C@@H](O)[C@H]2O)cc1F [capecitabine]
biodistribution of capecitabine in blood [1]: negligible | biodistribution of capecitabine in liver [1]: negligible | biodistribution of capecitabine in lungs [1]: negligible | biodistribution of capecitabine in spleen [1]: negligible | concentration at 0.5 h (in vivo; liver): 13 ng/mL | concentration at 0.5 h (in vivo; lungs): 12.5 ng/mL | concentration at 0.5 h (in vivo; spleen): 12.1 ng/mL | concentration at 0.5 h (in vivo; whole blood): 13.6 ng/mL
